Source: ChEMBL document CHEMBL5518207, “Structure Guided Discovery of Novel Pan Metallo-β-Lactamase Inhibitors with Improved Gram-Negative Bacterial Cell Penetration” (J Med Chem, 2024)

Assays:
Pseudomonas aeruginosa [1] = assay: Potentiation of imipenem induced antibacterial activity against isogenic efflux deleted mutant Pseudomonas aeruginosa MB9799 harbouring IMP incubated for 18 to 22 hrs imipenem and beta lactamase inhibitor by spectrophotometer based analysis; assay type: functional; conditions: time 18-22 hrs
[2] = target: Voltage-dependent L-type calcium channel subunit alpha-1C (Homo sapiens, UniProt Q13936); assay: Inhibition of Cav1.2 channel (unknown origin)
Sequence of Voltage-dependent L-type calcium channel subunit alpha-1C (Q13936 whole entry): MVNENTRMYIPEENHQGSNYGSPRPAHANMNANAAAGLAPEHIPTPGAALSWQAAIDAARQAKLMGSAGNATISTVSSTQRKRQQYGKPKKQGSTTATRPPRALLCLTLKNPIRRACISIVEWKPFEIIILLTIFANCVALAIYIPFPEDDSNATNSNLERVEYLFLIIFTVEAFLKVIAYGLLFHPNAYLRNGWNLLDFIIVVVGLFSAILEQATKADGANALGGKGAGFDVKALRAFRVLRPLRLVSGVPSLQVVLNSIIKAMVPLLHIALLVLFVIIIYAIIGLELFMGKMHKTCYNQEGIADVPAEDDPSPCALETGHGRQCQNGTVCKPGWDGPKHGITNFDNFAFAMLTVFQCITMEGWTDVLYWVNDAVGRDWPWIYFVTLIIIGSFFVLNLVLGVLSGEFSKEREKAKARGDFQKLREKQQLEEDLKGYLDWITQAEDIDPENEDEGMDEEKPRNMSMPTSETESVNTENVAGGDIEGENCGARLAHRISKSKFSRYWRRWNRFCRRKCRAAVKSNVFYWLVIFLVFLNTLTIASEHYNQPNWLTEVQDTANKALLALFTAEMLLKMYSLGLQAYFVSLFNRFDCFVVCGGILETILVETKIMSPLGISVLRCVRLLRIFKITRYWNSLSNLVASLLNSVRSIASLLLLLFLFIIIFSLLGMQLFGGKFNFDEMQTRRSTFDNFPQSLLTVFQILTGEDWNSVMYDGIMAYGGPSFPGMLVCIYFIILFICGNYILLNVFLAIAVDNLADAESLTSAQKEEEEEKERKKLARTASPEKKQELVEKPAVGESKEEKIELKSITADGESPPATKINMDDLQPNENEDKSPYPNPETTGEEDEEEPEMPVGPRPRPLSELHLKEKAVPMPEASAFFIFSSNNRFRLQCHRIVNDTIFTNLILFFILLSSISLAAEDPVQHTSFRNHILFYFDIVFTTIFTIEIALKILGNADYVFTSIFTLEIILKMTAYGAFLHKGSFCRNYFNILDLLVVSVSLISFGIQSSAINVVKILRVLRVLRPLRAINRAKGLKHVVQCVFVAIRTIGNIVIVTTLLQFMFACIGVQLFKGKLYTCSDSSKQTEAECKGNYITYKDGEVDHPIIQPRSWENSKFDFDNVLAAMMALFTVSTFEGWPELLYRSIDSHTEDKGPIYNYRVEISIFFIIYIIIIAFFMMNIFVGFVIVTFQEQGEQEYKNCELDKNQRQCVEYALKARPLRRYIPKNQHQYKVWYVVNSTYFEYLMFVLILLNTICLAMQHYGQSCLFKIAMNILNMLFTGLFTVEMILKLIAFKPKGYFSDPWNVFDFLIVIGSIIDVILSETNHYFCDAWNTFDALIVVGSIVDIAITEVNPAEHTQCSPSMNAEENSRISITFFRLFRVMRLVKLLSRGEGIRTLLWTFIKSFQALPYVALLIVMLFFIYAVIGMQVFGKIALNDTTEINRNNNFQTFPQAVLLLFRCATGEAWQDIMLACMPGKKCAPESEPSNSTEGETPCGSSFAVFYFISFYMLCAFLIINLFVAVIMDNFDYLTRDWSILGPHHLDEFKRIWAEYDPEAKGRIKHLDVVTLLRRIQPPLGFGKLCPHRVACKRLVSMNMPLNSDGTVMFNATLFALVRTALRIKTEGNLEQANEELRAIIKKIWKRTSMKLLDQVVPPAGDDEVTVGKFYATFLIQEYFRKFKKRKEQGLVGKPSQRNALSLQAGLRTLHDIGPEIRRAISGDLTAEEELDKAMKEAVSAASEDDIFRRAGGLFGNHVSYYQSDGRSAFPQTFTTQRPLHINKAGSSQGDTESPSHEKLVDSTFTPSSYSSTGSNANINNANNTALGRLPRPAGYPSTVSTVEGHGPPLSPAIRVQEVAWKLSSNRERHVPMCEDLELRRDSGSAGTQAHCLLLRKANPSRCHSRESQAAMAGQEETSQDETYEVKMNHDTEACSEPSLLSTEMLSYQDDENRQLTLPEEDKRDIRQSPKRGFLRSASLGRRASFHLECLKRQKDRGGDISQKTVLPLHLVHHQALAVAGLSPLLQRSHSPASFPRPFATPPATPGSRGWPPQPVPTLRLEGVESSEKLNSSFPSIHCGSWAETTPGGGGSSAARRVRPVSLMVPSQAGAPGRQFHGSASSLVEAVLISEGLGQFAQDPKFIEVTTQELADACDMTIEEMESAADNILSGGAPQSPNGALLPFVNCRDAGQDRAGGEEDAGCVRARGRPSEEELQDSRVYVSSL

[3] = Inhibition of GST tagged VIM-2 (unknown origin) expressed in Escherichia coli BL21 Star (DE3) competent cells using CCF2-FA as substrate incubated for 2 hrs by fluorescence based analysis
[4] = Toxicity in Wistar rat assessed as increase in histamine concentration in plasma at 30 mg/kg, iv measured after 24 hrs; assay type: organism-based; conditions: in vivo
[5] = Inhibition of GST tagged IMP-1 (unknown origin) expressed in Escherichia coli BL21 Star (DE3) competent cells using CCF2-FA as substrate incubated for 2 hrs by fluorescence based analysis
[6] = Toxicity in Beagle dog assessed as appearance of watery eyes at 1 mg/kg, iv measured after 24 hrs by HPLC-MS analysis; assay type: organism-based, Canis lupus familiaris; conditions: in vivo
[7] = AUC in Beagle dog at 1 mg/kg, iv measured after 24 hrs by HPLC-MS analysis; assay type: ADME, organism-based, Canis lupus familiaris; conditions: in vivo
[8] = Clearance in Beagle dog at 1 mg/kg, iv measured after 24 hrs by HPLC-MS analysis; assay type: ADME, organism-based, Canis lupus familiaris; conditions: in vivo
Cytochrome P450 3A4 = Cytochrome P450 3A4 (Homo sapiens, UniProt P08684); assay: Inhibition of CYP3A4 (unknown origin); assay type: ADME
Sequence of Cytochrome P450 3A4 (P08684 whole entry): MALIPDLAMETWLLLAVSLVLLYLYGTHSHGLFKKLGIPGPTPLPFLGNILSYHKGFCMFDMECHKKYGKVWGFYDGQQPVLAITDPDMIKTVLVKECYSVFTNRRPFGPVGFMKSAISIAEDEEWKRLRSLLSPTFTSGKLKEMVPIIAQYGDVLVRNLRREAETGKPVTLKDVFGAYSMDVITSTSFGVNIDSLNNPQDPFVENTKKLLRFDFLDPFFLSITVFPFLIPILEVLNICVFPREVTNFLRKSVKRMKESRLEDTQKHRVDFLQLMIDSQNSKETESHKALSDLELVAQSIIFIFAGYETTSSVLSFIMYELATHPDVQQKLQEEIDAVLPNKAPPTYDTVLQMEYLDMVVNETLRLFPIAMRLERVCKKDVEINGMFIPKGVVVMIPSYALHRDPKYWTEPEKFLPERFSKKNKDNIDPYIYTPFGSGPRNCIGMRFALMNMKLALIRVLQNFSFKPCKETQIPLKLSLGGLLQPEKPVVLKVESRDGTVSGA

Serratia marcescens = assay: Potentiation of imipenem induced antibacterial activity against Serratia marcescens CL5741 harbouring IMP-1 incubated for 18 to 22 hrs imipenem by spectrophotometer based analysis; assay type: functional; conditions: time 18-22 hrs
[9] = MRT in Beagle dog at 1 mg/kg, iv measured after 24 hrs by HPLC-MS analysis; assay type: ADME, organism-based, Canis lupus familiaris; conditions: in vivo
[10] = Volume of distribution at steady state in Beagle dog at 1 mg/kg, iv measured after 24 hrs by HPLC-MS analysis; assay type: ADME, organism-based, Canis lupus familiaris; conditions: in vivo, read-out: Vdss
[11] = Cmax in Beagle dog at 1 mg/kg, iv measured after 24 hrs by HPLC-MS analysis; assay type: ADME, organism-based, Canis lupus familiaris; conditions: in vivo
[12] = Toxicity in Beagle dog assessed as increase in histamine level in plasma at 1 mg/kg, iv measured upto 24 hrs by HPLC-MS analysis; assay type: organism-based, Canis lupus familiaris; conditions: in vivo
[13] = Inhibition of GST tagged VIM-1 (unknown origin) expressed in Escherichia coli BL21 Star (DE3) competent cells using CCF2-FA as substrate incubated for 2 hrs by fluorescence based analysis
[14] = Inhibition of GST tagged NDM-1 (unknown origin) expressed in Escherichia coli BL21 Star (DE3) competent cells using CCF2-FA as substrate incubated for 2 hrs by fluorescence based analysis
[15] = target: Sodium channel protein type 5 subunit alpha (Homo sapiens, UniProt Q14524); assay: Inhibition of NaV 1.5 channel (unknown origin)
[16] = Volume of distribution at steady state in rat at 1 mg/kg, iv measured after 24 hrs by HPLC-MS analysis; assay type: ADME, organism-based; conditions: in vivo, read-out: Vdss
[17] = Cmax in Wistar rat at 30 mg/kg, iv measured after 24 hrs by HPLC-MS analysis; assay type: ADME, organism-based; conditions: in vivo
[18] = Toxicity in Beagle dog assessed as emesis at 1 mg/kg, iv measured after 24 hrs by HPLC-MS analysis; assay type: organism-based, Canis lupus familiaris; conditions: in vivo
Cytochrome P450 2C8 = target: T1, Cytochrome P450 2C8 (Homo sapiens, UniProt P10632); assay: Inhibition of CYP2C8 (unknown origin); assay type: ADME
T1 sequence (P10632 whole entry): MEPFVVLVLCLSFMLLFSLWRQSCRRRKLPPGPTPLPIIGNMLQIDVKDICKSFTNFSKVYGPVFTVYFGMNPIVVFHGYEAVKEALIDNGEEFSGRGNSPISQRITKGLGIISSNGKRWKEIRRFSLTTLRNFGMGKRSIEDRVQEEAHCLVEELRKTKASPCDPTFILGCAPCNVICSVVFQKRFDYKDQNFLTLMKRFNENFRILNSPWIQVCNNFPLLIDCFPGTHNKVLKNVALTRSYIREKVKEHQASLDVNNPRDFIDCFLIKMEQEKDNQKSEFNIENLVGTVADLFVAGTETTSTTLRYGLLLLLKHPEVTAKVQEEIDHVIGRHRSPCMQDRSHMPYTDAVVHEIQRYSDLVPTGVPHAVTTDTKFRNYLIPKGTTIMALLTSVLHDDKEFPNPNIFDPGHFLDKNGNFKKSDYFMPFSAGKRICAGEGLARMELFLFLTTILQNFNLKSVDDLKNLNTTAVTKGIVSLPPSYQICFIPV

Klebsiella pneumoniae = assay: Potentiation of imipenem induced antibacterial activity against Klebsiella pneumoniae IHMA599644 harbouring VIM-1 incubated for 18 to 22 hrs imipenem by spectrophotometer based analysis; assay type: functional; conditions: time 18-22 hrs
Cytochrome P450 2C9 = Cytochrome P450 2C9 (Homo sapiens, UniProt P11712); assay: Inhibition of CYP2C9 (unknown origin); assay type: ADME
Sequence of Cytochrome P450 2C9 (P11712 whole entry): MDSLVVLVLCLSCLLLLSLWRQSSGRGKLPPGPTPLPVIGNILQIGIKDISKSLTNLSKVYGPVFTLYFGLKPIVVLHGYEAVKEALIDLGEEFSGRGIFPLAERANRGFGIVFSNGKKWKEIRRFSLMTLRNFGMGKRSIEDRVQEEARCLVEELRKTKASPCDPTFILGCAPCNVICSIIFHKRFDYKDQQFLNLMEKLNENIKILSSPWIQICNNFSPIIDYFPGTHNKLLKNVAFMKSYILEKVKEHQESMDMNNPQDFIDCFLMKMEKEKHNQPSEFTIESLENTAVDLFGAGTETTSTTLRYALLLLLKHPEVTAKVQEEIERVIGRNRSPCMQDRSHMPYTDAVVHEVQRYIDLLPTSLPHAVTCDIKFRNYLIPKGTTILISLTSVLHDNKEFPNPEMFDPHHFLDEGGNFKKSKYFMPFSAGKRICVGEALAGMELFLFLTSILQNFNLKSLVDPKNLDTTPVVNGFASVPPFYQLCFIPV

[19] = target: Voltage-gated potassium channel, IKs; KCNQ1(Kv7.1)/KCNE1(MinK) (Homo sapiens, UniProt P15382+P51787); assay: Inhibition of KCNQ1/KCNE1 (unknown origin); assay type: protein-complex assay
Sequence of Voltage-gated potassium channel, IKs; KCNQ1(Kv7.1)/KCNE1(MinK) (P51787 whole entry): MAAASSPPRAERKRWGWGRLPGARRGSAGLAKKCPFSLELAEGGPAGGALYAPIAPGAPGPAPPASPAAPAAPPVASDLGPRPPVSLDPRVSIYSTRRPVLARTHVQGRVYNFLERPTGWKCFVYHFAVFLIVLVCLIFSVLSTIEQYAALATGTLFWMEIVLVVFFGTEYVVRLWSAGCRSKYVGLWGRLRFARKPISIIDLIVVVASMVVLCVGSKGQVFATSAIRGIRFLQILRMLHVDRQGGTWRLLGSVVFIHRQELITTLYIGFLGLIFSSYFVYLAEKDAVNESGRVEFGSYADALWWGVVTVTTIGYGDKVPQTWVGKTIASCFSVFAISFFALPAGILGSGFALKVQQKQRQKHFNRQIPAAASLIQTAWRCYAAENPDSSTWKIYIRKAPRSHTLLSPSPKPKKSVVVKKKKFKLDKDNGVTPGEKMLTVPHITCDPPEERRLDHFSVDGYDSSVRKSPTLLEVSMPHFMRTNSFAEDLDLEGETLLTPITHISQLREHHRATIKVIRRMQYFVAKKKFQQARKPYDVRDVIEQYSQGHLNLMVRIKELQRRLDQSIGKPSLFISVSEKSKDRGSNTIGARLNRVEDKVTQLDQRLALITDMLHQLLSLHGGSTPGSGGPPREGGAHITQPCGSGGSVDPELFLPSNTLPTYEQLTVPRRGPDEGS

[20] = AUC in rat at 1 mg/kg, iv measured after 24 hrs by HPLC-MS analysis; assay type: ADME, organism-based; conditions: in vivo
Pseudomonas aeruginosa [21] = assay: Potentiation of imipenem induced antibacterial activity against isogenic efflux wild type Pseudomonas aeruginosa MB9798 harbouring IMP incubated for 18 to 22 hrs imipenem and beta lactamase inhibitor by spectrophotometer based analysis; assay type: functional; conditions: time 18-22 hrs
[22] = Clearance in rat at 1 mg/kg, iv measured after 24 hrs by HPLC-MS analysis; assay type: ADME, organism-based; conditions: in vivo
[23] = Toxicity in Wistar rat assessed as decrease in mean blood pressure at 30 mg/kg, iv measured after 20 mins; assay type: organism-based; conditions: in vivo
[24] = Unbound fraction in Beagle dog plasma at 1 mg/kg, iv measured after 24 hrs by HPLC-MS analysis; assay type: ADME, organism-based, Canis lupus familiaris
[25] = Cmax in rat at 1 mg/kg, iv measured after 24 hrs by HPLC-MS analysis; assay type: ADME, organism-based; conditions: in vivo
[26] = Unbound fraction in rat plasma at 1 mg/kg, iv measured after 24 hrs by HPLC-MS analysis; assay type: ADME, organism-based
[27] = MRT in rat at 1 mg/kg, iv measured after 24 hrs by HPLC-MS analysis; assay type: ADME, organism-based; conditions: in vivo
[28] = target: Voltage-gated inwardly rectifying potassium channel KCNH2 (Homo sapiens, UniProt Q12809); assay: Inhibition of human ERG; assay type: toxicity
Escherichia coli = assay: Potentiation of imipenem induced antibacterial activity against Escherichia coli CLB30005 harbouring NDM-1 incubated for 18 to 22 hrs in presence of imipenem by spectrophotometer based analysis; assay type: functional; conditions: time 18-22 hrs
Pseudomonas aeruginosa [29] = assay: Efflux ratio of MITC95 for potentiation of imipenem induced antibacterial activity against isogenic efflux wild type Pseudomonas aeruginosa MB9798 harbouring IMP to MITC95 for potentiation of imipenem induced antibacterial activity against isogenic efflux deleted mutant Pseudomonas aeruginosa MB9799 harbouring IMP; assay type: functional
Cytochrome P450 2D6 = Cytochrome P450 2D6 (Homo sapiens, UniProt P10635); assay: Inhibition of CYP2D6 (unknown origin); assay type: ADME
Sequence of Cytochrome P450 2D6 (P10635 whole entry): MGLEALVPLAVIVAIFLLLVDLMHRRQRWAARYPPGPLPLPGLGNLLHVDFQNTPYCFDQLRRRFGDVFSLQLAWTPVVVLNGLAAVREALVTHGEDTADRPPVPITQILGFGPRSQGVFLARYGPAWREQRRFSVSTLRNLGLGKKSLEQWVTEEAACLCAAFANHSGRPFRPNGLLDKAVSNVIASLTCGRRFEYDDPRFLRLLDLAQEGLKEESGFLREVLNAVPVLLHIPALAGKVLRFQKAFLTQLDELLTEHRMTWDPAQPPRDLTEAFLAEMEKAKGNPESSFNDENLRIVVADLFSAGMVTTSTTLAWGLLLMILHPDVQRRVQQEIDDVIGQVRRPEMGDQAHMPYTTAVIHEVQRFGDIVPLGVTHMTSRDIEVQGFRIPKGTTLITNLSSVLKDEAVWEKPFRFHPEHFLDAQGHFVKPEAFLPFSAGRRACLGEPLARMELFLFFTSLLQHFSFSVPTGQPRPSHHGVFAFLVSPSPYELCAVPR

[30] = Cmax in Wistar rat at 100 mg/kg, iv measured after 24 hrs by HPLC-MS analysis; assay type: ADME, organism-based; conditions: in vivo
[31] = Unbound fraction in rat plasma at 5 mg/kg, iv measured after 24 hrs by HPLC-MS analysis; assay type: ADME, organism-based
[32] = Toxicity in Wistar rat assessed as decrease in mean blood pressure at 100 mg/kg, iv measured after 20 mins; assay type: organism-based; conditions: in vivo
[33] = MRT in rat at 5 mg/kg, iv measured after 24 hrs by HPLC-MS analysis; assay type: ADME, organism-based; conditions: in vivo
[34] = Volume of distribution at steady state in rat at 5 mg/kg, iv measured after 24 hrs by HPLC-MS analysis; assay type: ADME, organism-based; conditions: in vivo, read-out: Vdss
[35] = Cmax in rat at 5 mg/kg, iv measured after 24 hrs by HPLC-MS analysis; assay type: ADME, organism-based; conditions: in vivo
[36] = Clearance in rat at 5 mg/kg, iv measured after 24 hrs by HPLC-MS analysis; assay type: ADME, organism-based; conditions: in vivo
[37] = Toxicity in Wistar rat assessed as increase in histamine concentration in plasma at 100 mg/kg, iv measured after 24 hrs; assay type: organism-based; conditions: in vivo
[38] = Toxicity in Beagle dog assessed as drug tolerability at 1 mg/kg, iv measured after 24 hrs by HPLC-MS analysis; assay type: organism-based, Canis lupus familiaris; conditions: in vivo
[39] = AUC in rat at 5 mg/kg, iv measured after 24 hrs by HPLC-MS analysis; assay type: ADME, organism-based; conditions: in vivo
[40] = Cmax in Wistar rat at 5 mg/kg, iv administered as bolus dose measured after 24 hrs by HPLC-MS analysis; assay type: ADME, organism-based; conditions: in vivo
[41] = Cmax in Wistar rat at 90 mg/kg, iv measured after 24 hrs by HPLC-MS analysis; assay type: ADME, organism-based; conditions: in vivo

| SMILES | MITC95 (Pseudomonas aeruginosa [1]) | IC50 [2] | IC50 [3] | IC50 [5] | IC50 (Cytochrome P450 3A4) | MITC95 (Serratia marcescens) | Cmax [11] | IC50 [13] | IC50 [14] | IC50 [15] | Vd [16] | IC50 (Cytochrome P450 2C8) | MITC95 (Klebsiella pneumoniae) | IC50 (Cytochrome P450 2C9) | IC50 [19] | AUC at 24 h [20] | MITC95 (Pseudomonas aeruginosa [21]) | clearance [22] | MITC95 (Escherichia coli) | Ratio (Pseudomonas aeruginosa [29]) | also measured |
| --- | --- | --- | --- | --- | --- | --- | --- | --- | --- | --- | --- | --- | --- | --- | --- | --- | --- | --- | --- | --- | --- |
| NS(=O)(=O)c1c(CC2CCNCC2)ccc(-c2ccc(C3CCNCC3)cc2)c1-c1nn[nH]n1 | 0.8 µM | > 30000 nM | 1230 nM | 24 nM | > 50000 nM | 3.9 µM | 15 µM | 5 nM | 11 nM | > 30000 nM | 0.34 L/kg | > 50000 nM | 2.3 µM | > 50000 nM | > 30000 nM | 5.5 µM·h | 4.4 µM | 6.4 mL/min/kg | 2 µM | 6 | Activity [4]: Toxic; Activity [6]: Toxic; AUC at 24 h [7]: 10.4 µM·h; clearance [8]: 3.5 mL/min/kg; MRT [9]: 3.2 h; Vd [10]: 0.45 L/kg; Activity [12]: Toxic; Cmax [17]: 459 µM; Activity [18]: Toxic; Activity [23]: Toxic; fraction unbound at 24 h [24]: 0.84; Cmax [25]: 8.6 µM; fraction unbound at 24 h [26]: 0.8; MRT [27]: 0.88 h; IC50 [28]: > 30000 nM; IC50 (Cytochrome P450 2D6): > 50000 nM |
| NS(=O)(=O)c1c(C(F)(F)F)ccc(-c2ccc(C3CCN(CC4CNC4)CC3)cc2)c1-c1nnn[nH]1 | 0.39 µM | > 30000 nM | 62 nM | 0.4 nM | > 50000 nM | 1.6 µM | 13.8 µM | 3.8 nM | 2.3 nM | > 30000 nM | – | > 50000 nM | 7.8 µM | > 50000 nM | > 30000 nM | – | 4.7 µM | – | 0.6 µM | 12 | Cmax [30]: 726 µM; fraction unbound at 24 h [31]: 0.35; Activity [32]: Toxic; MRT [33]: 0.71 h; Vd [34]: 0.73 L/kg; Cmax [35]: 33.1 µM; clearance [36]: 19 mL/min/kg; Activity [37]: Toxic; Activity [38]: Non-Toxic; AUC at 24 h [39]: 9.6 µM·h; IC50 [28]: > 30000 nM; IC50 (Cytochrome P450 2D6): > 50000 nM |
| NS(=O)(=O)c1c(CC2CNC2)ccc(-c2ccc(C3CCNCC3)cc2)c1-c1nn[nH]n1 | 0.8 µM | – | – | 26 nM | – | 1.6 µM | – | 7 nM | 11 nM | – | – | – | 1.6 µM | – | – | – | 3.1 µM | – | 0.8 µM | 4 | Cmax [40]: 45 µM |
| Nc1ccc(-c2ccc(CC3CCNCC3)c(S(N)(=O)=O)c2-c2nn[nH]n2)cn1 | 12.5 µM | – | 140 nM | 164 nM | – | 6.3 µM | – | 25 nM | 12 nM | – | 0.25 L/kg | – | 4.2 µM | – | – | 11.7 µM·h | 50 µM | 3.5 mL/min/kg | 0.6 µM | 4 | Cmax [25]: 16.3 µM; Cmax [41]: 791 µM; fraction unbound at 24 h [26]: 0.47; MRT [27]: 1.21 h |
